# Test system: T1, glutaminase free asparaginase from Enterobacter cloacae
# T1 construct: gene ansB; native, purified from culture supernatant (ammonium sulphate, DEAE-cellulose, Sephadex G-100); EC 3.5.1.1
# Assay: Nesslerization (ammonia release), Lineweaver-Burk plot
# Assay type: biochemical
# Details: 0.05 M phosphate buffer pH 7.5, 37°C; L-asparagine 0.2–24 mM
compound,measurement,value
NC(=O)C[C@H](N)C(=O)O [L-asparagine],Km,1580 µM

# From publication PMC4758734, “Purification and Characterization of Glutaminase Free Asparaginase from Enterobacter cloacae: In-Vitro Evaluation of Cytotoxic Potential against Human Myeloid Leukemia HL-60 Cells” (PLoS ONE, 2016)
